These results are taken from patent US20240140933A1, “OXOINDOLINE COMPOUND FOR THE TREATMENT OF INFLAMMATORY DISEASES OR CANCER” (Hoffmann-La Roche Inc., priority 2021, published 2024).

Molecules are shown by their SMILES.

In the first assay the target is PDHK1 (Homo sapiens (Human), UniProt Q15118). Put plainly: PDHK1 enzymatic assay (AlphaScreen, phosphorylation of PDHE1 S293). In kind it is biochemical. Conditions: 1 nM PDHK1, 25 nM PDHE1, 20 μM ATP, 30° C. for 45 minutes. The source says: Pyruvate dehydrogenase complex (PDHc) is an enzyme that catalyzes the reaction of pyruvate and a lipoamide to give the acetylated dihydrolipoamide and carbon dioxide. PDHc has three subunits E1, E2 and E3. E1 has 3 serine phosphorylation sites S293, S232, S300. If E1 was phosphorylated, PDH will be inactivated. PDHK can phosphorylate PDH protein (also named PDHE1) in PDH complex (PDC) to inactivate it.
Chain of PDHK1 (Q15118 29-436): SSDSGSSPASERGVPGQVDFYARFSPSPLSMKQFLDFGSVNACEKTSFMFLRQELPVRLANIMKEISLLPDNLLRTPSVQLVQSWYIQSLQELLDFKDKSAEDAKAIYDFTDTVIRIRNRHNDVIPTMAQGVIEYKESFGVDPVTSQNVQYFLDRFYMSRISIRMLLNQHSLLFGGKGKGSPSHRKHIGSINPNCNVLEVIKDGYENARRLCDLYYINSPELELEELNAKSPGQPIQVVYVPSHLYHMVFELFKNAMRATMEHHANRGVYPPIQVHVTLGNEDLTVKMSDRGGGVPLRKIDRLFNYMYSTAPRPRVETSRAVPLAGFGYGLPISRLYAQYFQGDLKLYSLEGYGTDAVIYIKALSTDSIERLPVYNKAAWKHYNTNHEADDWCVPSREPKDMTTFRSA
As for `C=CS(=O)(=O)N[C@H]1CN(C2(C)C(=O)Nc3c(NCC)cc(F)cc32)CC[C@@H]1c1ccccc1` (stereo partly drawn) [Example 53, N-[(3R,4R)-1-[7-(ethylamino)-5-fluoro-3-methyl-2-oxo-indolin-3-yl]-4-phenyl-3-piperidyl]ethenesulfonamide], the “Enzymatic IC50 against PDHK1” value worked out at 0.015 mg/L. As to `CCNc1cc(F)cc2c1NC(=O)C2(C)N1CC[C@H](c2ccccc2)[C@@H](NC(=O)C2CN(C#N)C2)C1` (stereo partly drawn) [Example 54, 1-cyano-N-[(3R,4R)-1-[7-(ethylamino)-5-fluoro-3-methyl-2-oxo-indolin-3-yl]-4-phenyl-3-piperidyl]azetidine-3-carboxamide], the “Enzymatic IC50 against PDHK1” value is 0.009 mg/L. Still for that read-out and setting: in the case of `CCNc1cc(F)cc2c1NC(=O)C2(C)N1CC[C@H](c2ccccc2)[C@@H](Nc2ccc(C#N)nc2)C1` (stereo partly drawn) [Example 55, 5-[[(3R,4R)-1-[7-(ethylamino)-5-fluoro-3-methyl-2-oxo-indolin-3-yl]-4-phenyl-3-piperidyl]amino]pyridine-2-carbonitrile] it was 0.037 mg/L. For the compound `CCNc1cc(F)cc2c1NC(=O)C2(C)N1CC[C@H](c2ccccc2Oc2ccc(C(=O)O)cc2)[C@@H](NC(C)=O)C1` (stereo partly drawn) [Example 56, 4-[2-[(3R,4R)-3-acetamido-1-[7-(ethylamino)-5-fluoro-3-methyl-2-oxo-indolin-3-yl]-4-piperidyl]phenoxy]benzoic acid], the “Enzymatic IC50 against PDHK1” value turned out to be 0.005 mg/L.

For `CCNc1cc(F)cc2c1NC(=O)C2(C)N1CC[C@H](c2ccccc2Oc2ccc(C(N)=O)cc2)[C@@H](NC(C)=O)C1` (stereo partly drawn) [Example 57, 4-[2-[(3R,4R)-3-acetamido-1-[7-(ethylamino)-5-fluoro-3-methyl-2-oxo-indolin-3-yl]-4-piperidyl]phenoxy]benzamide], the “Enzymatic IC50 against PDHK1” value stood at 0.019 mg/L. Regarding `CCNc1cc(F)cc2c1NC(=O)C2(C)N1CC[C@H](c2ccccc2Oc2ccc(C#N)cc2)[C@@H](NC(C)=O)C1` (stereo partly drawn) [Example 58, N-[(3R,4R)-4-[2-(4-cyanophenoxy)phenyl]-1-[7-(ethylamino)-5-fluoro-3-methyl-2-oxo-indolin-3-yl]-3-piperidyl]acetamide], the “Enzymatic IC50 against PDHK1” value was determined as 0.03 mg/L.

For `CCNc1cc(F)cc2c1NC(=O)[C@]2(C)N1CC[C@H](c2ccccc2)[C@H](C(N)=O)C1` [Example 63A, (3S,4S)-1-[(3R)-7-(ethylamino)-5-fluoro-3-methyl-2-oxo-indolin-3-yl]-4-phenyl-piperidine-3-carboxamide], the “Enzymatic IC50 against PDHK1” value is 0.009 mg/L.

The same assay, now with this note: 1 nM PDHK1, 25 nM PDHE1, 20 μM ATP, 30° C. for 45 minutes; read-out: Enzymatic IC50 against PDHK1 (converted).
`CCNc1cc(F)cc2c1NC(=O)[C@@]2(C)N1CC[C@@H](c2ccccc2)[C@@H](C(N)=O)C1` [Example 59B, (3R,4R)-1-[(3S)-7-(ethylamino)-5-fluoro-3-methyl-2-oxo-indolin-3-yl]-4-phenyl-piperidine-3-carboxamide]: the IC50 was 0.0171 µM. Same read-out and setting: in the case of `CCNc1cc(F)cc2c1NC(=O)[C@@]2(C)N1CC[C@@H](c2ccccc2)[C@@H](C(=O)NC)C1` [Example 60B, (3R,4R)-1-[(3S)-7-(ethylamino)-5-fluoro-3-methyl-2-oxo-indolin-3-yl]-N-methyl-4-phenyl-piperidine-3-carboxamide] it was 0.0212 µM.

Consider `CCNc1cc(F)cc2c1NC(=O)[C@@]2(C)N1CC[C@@H](c2ccccc2)[C@@H](C(=O)Nc2ccccc2)C1` [Example 61B, (3R,4R)-1-[(3S)-7-(ethylamino)-5-fluoro-3-methyl-2-oxo-indolin-3-yl]-N,4-diphenyl-piperidine-3-carboxamide], for which the concentration for half-maximal inhibition (IC50) is 0.0473 µM.

In the case of `CCNc1cc(F)cc2c1NC(=O)[C@@]2(C)N1CC[C@@H](c2ccccc2)[C@@H](C(=O)NCc2ccccc2)C1` [Example 62B, (3R,4R)-N-benzyl-1-[(3S)-7-(ethylamino)-5-fluoro-3-methyl-2-oxo-indolin-3-yl]-4-phenyl-piperidine-3-carboxamide], the IC50 is 0.0759 µM.
